Results reported in patent US12152048B2, “Nitroxoline prodrug and use thereof” (Jiangsu Yahong Meditech Co., Ltd., priority 2018, dated 2024).
≈ marks a conversion by molar mass, not a printed value.

Assays:
[1] = Determination of water solubility in phosphate buffer; assay type: physicochemical; conditions: for solubility at 24 h: thermodynamic from solid
Summary of the method: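 2 mg solid compound shaken in 500 μL phosphate buffer (pH 1.2, 4.5, 6.8 or 7.4) in a sealed flask, room temperature, 24 h. Suspension vacuum-filtered; dissolved concentration in filtrate quantified by LC/MS/MS.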

[2] = Stability in mouse liver microsome; assay type: in vitro ADME; conditions: 2 μM, 37° C., 30 minutes
Stability in dog plasma = assay type: in vitro ADME
[3] = Stability in monkey plasma; assay type: in vitro ADME
[4] = Pharmacokinetics assay in dog (nitroxoline concentration in plasma after single intravenous or oral administration); assay type: in vivo, beagle dog; conditions: for absorption in beagle dogs compared with nitroxoline: conclusion in words; for AUC0-inf: nitroxoline in beagle dog plasma
Text: Nitroxoline is mainly metabolized by the phase II metabolism in liver with a fast metabolism rate, so it has a short half-life in the body. The present invention modified its structure and 13 compounds of formula (I) were obtained through chemical synthesis. The change of nitroxoline concentration in dog plasma after a single intravenous or oral administration of nitroxoline and the compound of formula (I) was studied to evaluate the pharmacokinetic behavior of nitroxoline and the compound of formula (I) in dog body.
Male beagle dog (Beijing Marshall Biotechnology Co., Ltd., Certificate No.: SCXK (BJ) 2016-0001, Qualified number: 11400600001728), 3 dogs per group, weight 10 to 13 kg, 20 to 22 months old. The dogs were fasted overnight before the administration with free access to water, and fed 4 hours after the administration. The test compound was added to an EP tube, and then added with DMSO, solutol and sterilized water for injection (the volume ratio of the three was 1:2:17, v:v:v). The EP tube was subjected to ultrasound for 20 minutes to make the test compound dissolve well (compound concentration: 0.005 mmol/mL). The dose for intravenous administration was 0.01 mmol/kg, and the dose for oral administration was 0.1 mmol/kg. 0.3 ml of whole blood was collected from jugular vein before the administration (0 hour) and 0.0833, 0.25, 0.5, 1, 2, 4, 6, 8, 10 and 12 hours after the administration (sampling points can be adjusted according to the specific situation) respectively. The blood sample was placed in a centrifuge tube containing EDTA-K2 anticoagulant (Aldrich), and the centrifuge tube was left to stand in ice. The blood sample was centrifuged for 10 minutes at 1530 g within 0.5 hour to obtain all clean plasma. The plasma was placed in another clean centrifuge tube, and stored in a refrigerator at −20° C. for later use.
Solution for standard curve was formulated. 1000 μL of internal standard working solution (containing a solution of verapamil (5 ng/mL, Aldrich), glibenclamide (50 ng/mL, Aldrich) and diclofenac (50 ng/mL, Aldrich) in acetonitrile) was added to 10 μL of the solution for standard curve and sample, and the mixture was shaked by vortex for 5 minutes. The mixture was centrifuged for 10 minutes at 4° C., 3700 rpm. 60 μL of the supernatant were placed in an injection tube, and mixed with 120 μL of water. 10 μL of the solution were injected into the liquid chromatography-mass spectrometry system for determination. The pharmacokinetic parameters were calculated by the WinNonlin V 6.2 non-compartmental model.

[5] = Stability in human plasma
Text: (§1) Experimental instruments: thermostatic shaker (SHA-B, Guohua Electric Appliance Co., Ltd.); centrifuge (5810R, Eppendorf); mass spectrometry (AP4000, Applied Biosystems, USA); liquid chromatography (LC-30AD, Shimadzu); sample injector (CTC Analytics AG System, CTC).
(§2) Test animals: plasma of human (batch number: BRH1343165), rat (batch number: RAT336728), mouse (batch number: MSE280000), dog (batch number: BGL99137) and monkey (batch number: PH-Monkey-20180821) are purchased from Shanghai Sixin Biological Technology Co., Ltd.
(§3) Experimental process: the compound of the present invention was dissolved in an organic solvent to obtain a 1 mM working solution. 3 μL of the working solution were added to 597 μL of pre-incubated human or rat plasma and mixed well. 50 μL of the solution were immediately taken out as the 0 minute sample. The remaining sample was incubated at 37° C., and 50 μL of sample were taken out at 15, 30, 60 and 120 minutes respectively. All the samples taken out were immediately processed to precipitate protein, and centrifuged to obtain a supermate for the determination of the compound concentration by LC/MS/MS.

[6] = Stability in dog liver microsome; conditions: 2 μM, 37° C., 30 minutes
[7] = Stability in rat liver microsome; conditions: 2 μM, 37° C., 30 minutes
Description: (§4) Experimental instruments: thermostatic shaker (SHA-B, Guohua Electric Appliance Co., Ltd.); centrifuge (5810R, Eppendorf); mass spectrometry (API4000, Applied Biosystems, USA); liquid chromatography (LC-30AD, Shimadzu); sample injector (CTC Analytics AG System, CTC).
(§5) Experimental process: 25 μg/mL alamethicin (Aldrich), 5 mM magnesium chloride and 0.5 mg/mL microsome (XENOTECH) were added to 100 mM phosphate buffer to obtain a coenzyme-free reaction solution. A portion of the coenzyme-free reaction solution was added with 1 mM reductive nicotinamide adenine dinucleotide phosphate (Aldrich) and 5 mM uridine diphosphate glucuronic acid (Aldrich) to obtain a coenzyme-containing reaction solution. The working solution of the compound of the present invention was added to the two reaction solutions so that the final concentration of the compound was 2 μM. Immediately after mixing well, 50 μL of the solution were taken out as the 0 minute sample, and 50 μL of the remaining sample were taken out after incubating at 37° C. for 30 minutes. All the samples taken out were immediately processed to precipitate protein, and centrifuged to obtain a supernate for the determination of the compound concentration by LC/MS/MS.

[8] = Stability in human liver microsome; conditions: 2 μM, 37° C., 30 minutes
Description: as §4, §5

[9] = Stability in plasma, overall conclusion (species not stated); conditions: conclusion in words
[10] = aqueous buffer, phosphate buffer pH 4.5, room temperature
[11] = aqueous buffer, phosphate buffer pH 6.8, room temperature
[12] = aqueous buffer, phosphate buffer pH 7.4, room temperature
[13] = simulated gastric fluid, phosphate buffer pH 1.2, room temperature
[14] = oral administration 0.1 mmol/kg
[15] = intravenous administration 0.01 mmol/kg

Text for Stability in rat plasma: as §1, §2, §3

Row | Compound | solubility at 24 h [1, 12] | Percentage of the compound remaining in mouse liver microsome ([2]; with coenzyme) | Percentage of the compound remaining in mouse liver microsome ([2]; without coenzyme) | Percentage of the compound remaining in plasma (Stability in dog plasma; 0 minute) | Percentage of the compound remaining in plasma (Stability in dog plasma; 37° C., 15 minutes) | Percentage of the compound remaining in plasma (Stability in dog plasma; 37° C., 30 minutes) | Percentage of the compound remaining in plasma (Stability in dog plasma; 37° C., 60 minutes) | Percentage of the compound remaining in plasma (Stability in dog plasma; 37° C., 120 minutes) | Percentage of the compound remaining in plasma (Stability in rat plasma; 0 minute) | Percentage of the compound remaining in plasma (Stability in rat plasma; 37° C., 15 minutes) | Percentage of the compound remaining in plasma (Stability in rat plasma; 37° C., 30 minutes) | Percentage of the compound remaining in plasma (Stability in rat plasma; 37° C., 60 minutes) | Percentage of the compound remaining in plasma (Stability in rat plasma; 37° C., 120 minutes) | Percentage of the compound remaining in plasma ([5]; 0 minute) | Percentage of the compound remaining in dog liver microsome ([6]; with coenzyme) | Percentage of the compound remaining in dog liver microsome ([6]; without coenzyme) | Percentage of the compound remaining in rat liver microsome ([7]; with coenzyme) | Percentage of the compound remaining in rat liver microsome ([7]; without coenzyme) | Percentage of the compound remaining in human liver microsome ([8]; with coenzyme) | Percentage of the compound remaining in human liver microsome ([8]; without coenzyme) | also measured
1 | CCC(CC)C(=O)OCOc1ccc([N+](=O)[O-])c2cccnc12 [Compound 5, (5-nitroquinolin-8-yloxy)methyl 2-ethylbutanoate] | 13 µg/mL (≈ 40.9 µM) | 0.44% | 0.34% | 100.0% | 75.0% | 50.6% | 27.1% | 12.0% | 100.0% | 2.2% | 0.0% | 0.0% | 0.0% | 100.0% | 0.19% | 4.06% | 0.16% | 1.10% | 0.15% | 0.88% | solubility at 24 h [1, 10]: 13.1 µg/mL (≈ 41.1 µM); solubility at 24 h [1, 11]: 11.1 µg/mL (≈ 34.9 µM); solubility at 24 h [1, 13]: 204 µg/mL (≈ 640 µM); Percentage of the compound remaining in plasma ([3]; 0 minute): 100.0%; Percentage of the compound remaining in plasma ([3]; 37° C., 15 minutes): 0.0%; Percentage of the compound remaining in plasma ([3]; 37° C., 30 minutes): 0.0%; Percentage of the compound remaining in plasma ([3]; 37° C., 60 minutes): 0.0%; Percentage of the compound remaining in plasma ([3]; 37° C., 120 minutes): 0.0%; absorption in beagle dogs compared with nitroxoline [4]: well absorbed; AUC0-inf [4, 14]: 1760 ng*hmL^−1; Percentage of the compound remaining in plasma ([5]; 37° C., 15 minutes): 68.5%; Percentage of the compound remaining in plasma ([5]; 37° C., 30 minutes): 39.5%; Percentage of the compound remaining in plasma ([5]; 37° C., 60 minutes): 11.9%; Percentage of the compound remaining in plasma ([5]; 37° C., 120 minutes): 1.6%
2 | CC(C)C(=O)N1CCC[C@H]1C(=O)OCOc1ccc([N+](=O)[O-])c2cccnc12 [Compound 20, (S)-(5-nitroquinolin-8-yloxy)methyl 1-isopropionylpyrrolidine-2-carboxylate] | 978 µg/mL (≈ 2530 µM) | 0.09% | 49.07% | – | – | – | – | – | – | – | – | – | – | – | 33.13% | 53.50% | 3.64% | 46.82% | 26.92% | 59.42% | solubility at 24 h [1, 10]: 1050 µg/mL (≈ 2700 µM); solubility at 24 h [1, 11]: 962 µg/mL (≈ 2480 µM); water solubility compared with nitroxoline ([1]; conclusion in words): increased by several times; solubility at 24 h [1, 13]: 1010 µg/mL (≈ 2610 µM); absorption in beagle dogs compared with nitroxoline [4]: well absorbed; AUC0-inf [4, 15]: 1290 ng*hmL^−1; AUC0-inf [4, 14]: 8750 ng*hmL^−1
3 | CCC(CC)C(=O)OC(C)Oc1ccc([N+](=O)[O-])c2cccnc12 (stereo not drawn) [Compound 51, 1-(5-nitroquinolin-8-yloxy)ethyl 2-ethylbutanoate] | 6.62 µg/mL (≈ 19.9 µM) | 0.02% | 0.09% | 100.0% | 103.7% | 93.7% | 89.1% | 93.3% | 100.0% | 70.2% | 67.8% | 48.0% | 35.3% | 100.0% | 0.07% | 0.28% | 0.08% | 2.92% | 0.06% | 0.25% | solubility at 24 h [1, 10]: 7.07 µg/mL (≈ 21.3 µM); solubility at 24 h [1, 11]: 5.69 µg/mL (≈ 17.1 µM); solubility at 24 h [1, 13]: 91.4 µg/mL (≈ 275 µM); Percentage of the compound remaining in plasma ([3]; 0 minute): 100.0%; Percentage of the compound remaining in plasma ([3]; 37° C., 15 minutes): 96.4%; Percentage of the compound remaining in plasma ([3]; 37° C., 30 minutes): 87.0%; Percentage of the compound remaining in plasma ([3]; 37° C., 60 minutes): 78.1%; Percentage of the compound remaining in plasma ([3]; 37° C., 120 minutes): 69.0%; absorption in beagle dogs compared with nitroxoline [4]: well absorbed; AUC0-inf [4, 15]: 1153 ng*hmL^−1; AUC0-inf [4, 14]: 2474 ng*hmL^−1; Percentage of the compound remaining in plasma ([5]; 37° C., 15 minutes): 97.2%; Percentage of the compound remaining in plasma ([5]; 37° C., 30 minutes): 98.0%; Percentage of the compound remaining in plasma ([5]; 37° C., 60 minutes): 94.1%; Percentage of the compound remaining in plasma ([5]; 37° C., 120 minutes): 84.6%
4 | CCC(NC(=O)OCOc1ccc([N+](=O)[O-])c2cccnc12)C(=O)OC (stereo not drawn) [Compound 54, methyl 2-(((5-nitroquinolin-8-yloxy)methoxy)formamido)butanoate] | 24.4 µg/mL (≈ 67.3 µM) | 9.85% | 31.90% | 100.0% | 100.3% | 99.2% | 92.4% | 74.7% | 100.0% | 0.0% | 0.0% | 0.0% | 0.0% | 100.0% | 61.38% | 70.31% | 10.77% | 13.97% | 31.49% | 29.40% | Percentage of the compound remaining in plasma ([5]; 37° C., 15 minutes): 108.6%; Percentage of the compound remaining in plasma ([5]; 37° C., 30 minutes): 103.3%; Percentage of the compound remaining in plasma ([5]; 37° C., 60 minutes): 93.4%; Percentage of the compound remaining in plasma ([5]; 37° C., 120 minutes): 71.9%; stability in plasma [9]: high stability
5 | CCC(C)C(NC(=O)OCOc1ccc([N+](=O)[O-])c2cccnc12)C(=O)OC (stereo not drawn) [Compound 55, methyl 3-methyl-2-(((5-nitroquinolin-8-yloxy)methoxy)formamido)pentanoate] | 15.5 µg/mL (≈ 39.7 µM) | 2.01% | 90.39% | 100.0% | 99.6% | 97.5% | 83.3% | 70.1% | 100.0% | 48.9% | 24.7% | 5.0% | 0.3% | 100.0% | 70.73% | 84.65% | 8.58% | 52.76% | 61.24% | 81.91% | Percentage of the compound remaining in plasma ([5]; 37° C., 15 minutes): 91.3%; Percentage of the compound remaining in plasma ([5]; 37° C., 30 minutes): 94.5%; Percentage of the compound remaining in plasma ([5]; 37° C., 60 minutes): 92.1%; Percentage of the compound remaining in plasma ([5]; 37° C., 120 minutes): 68.7%; stability in plasma [9]: high stability
